Data reported in BindingDB's records for patent US11718622 (Exelixis, 2023).
pIC50: −log10 of the molar value.

Tests used:
Adenosine receptor A2a = Adenosine receptor A2a (Homo sapiens, UniProt P29274); test: ADORA1A Receptor Binding Assay
Procedure: 2 L of each compound (test compounds, high control compound, low control compound) was transferred into individual wells of an assay plate. Also, to each individual well, 98 µL of Adenosine A1a membrane stock (for ADORA1A Receptor Binding Assay) or Adenosine A2a membrane stock (for ADORA2A Receptor Binding Assay) was dispensed, followed by 100 L of radio-labeled ligand. Plates were then sealed and incubated at room temperature for 1 hour (for ADORA1A Receptor Binding Assay) or 2 hours (for ADORA2A Receptor Binding Assay). Unifilter-96 GF/C filter plates were pre-soaked with 50 µL of 0.3% PEI per well for at least 30 min at room temperature. When binding assays were completed, reaction mixtures were filtered through GF/C plates using a Perkin Elmer Filtermate Harvester, and then each plate was washed 4 with cold wash buffer. Filter plates were then dried for 1 hour at 50 ° C. After drying, the bottom of the filter plate wells was sealed using Perkin Elmer Unifilter-96 backing seal tape. […] 3H trapped on the filter was counted using a Perkin Elmer MicroBeta2 Reader. Data analysis was performed using GraphPad Prism 5 software, and the Inhibition [% Control] was calculated using the following equation: % Inh=(1 Background subtracted Assay value/Background subtracted HC value) *100.

Adenosine receptor A2b = target: T1, Adenosine receptor A2b (Homo sapiens, UniProt P29275); test: ADORA2B Receptor Binding Assay
T1 sequence (P29275 whole entry): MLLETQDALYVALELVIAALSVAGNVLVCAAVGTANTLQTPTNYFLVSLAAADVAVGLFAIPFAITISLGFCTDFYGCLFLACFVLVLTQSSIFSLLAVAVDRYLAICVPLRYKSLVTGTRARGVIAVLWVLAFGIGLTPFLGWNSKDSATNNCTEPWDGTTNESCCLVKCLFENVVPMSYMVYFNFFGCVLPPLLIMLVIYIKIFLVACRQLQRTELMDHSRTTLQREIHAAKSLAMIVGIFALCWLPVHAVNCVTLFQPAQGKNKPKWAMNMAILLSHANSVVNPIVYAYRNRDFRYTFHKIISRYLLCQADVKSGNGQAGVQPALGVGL
Procedure: 100 μL of Adenosine A2B membrane stock was dispensed into individual wells of an assay plate. 1 μL of each compound (test compounds, high control compound, low control compound) was then transferred into individual wells, followed by 100 μL of radio-labeled ligand. Plates were then sealed, and incubated at room temperature for 1 hour. Unifilter-96 GF/C filter plates were pre-soaked with 50 μL of 0.5% BSA per well for at least 30 min at room temperature. When binding assays were completed, reaction mixtures were filtered through GF/C plates using a Perkin Elmer Filtermate Harvester, and then each plate was washed 4× with cold wash buffer. Filter plates were then dried for 1 hour at 50° C. After drying, the bottom of the filter plate wells was sealed using Perkin Elmer Unifilter-96 backing seal tape. 50 μL of Perkin Elmer Microscint 20 cocktail was then added, and the top of the filter plate was then sealed using Perkin Elmer TopSeal-A sealing film. 3H trapped on the filter was counted using a Perkin Elmer MicroBeta2 Reader. Data analysis was performed using GraphPad Prism 5 software, and the Inhibition [% Control] was calculated using the following equation: % Inh=(1−Background subtracted Assay value/Background subtracted HC value) *100.

Sequence of Adenosine receptor A2a (P29274 whole entry): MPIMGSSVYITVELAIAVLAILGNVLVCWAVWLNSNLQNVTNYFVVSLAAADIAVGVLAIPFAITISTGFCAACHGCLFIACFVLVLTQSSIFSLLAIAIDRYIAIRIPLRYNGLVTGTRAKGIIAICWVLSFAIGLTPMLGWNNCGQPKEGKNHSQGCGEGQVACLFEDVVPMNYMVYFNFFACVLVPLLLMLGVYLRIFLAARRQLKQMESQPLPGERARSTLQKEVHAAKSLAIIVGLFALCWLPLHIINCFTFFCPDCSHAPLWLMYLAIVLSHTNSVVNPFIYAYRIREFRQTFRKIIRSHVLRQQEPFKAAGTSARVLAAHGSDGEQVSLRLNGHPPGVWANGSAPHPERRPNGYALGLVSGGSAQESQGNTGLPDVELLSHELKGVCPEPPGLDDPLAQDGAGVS

SMILES	pIC50 (Adenosine receptor A2a)	pIC50 (Adenosine receptor A2b)
Cc1ccc(-c2nc(N)c(C#N)c3nc(C(F)(F)F)nn23)o1 [US11718622, Compound 46]	> 8.00	> 8.00
Nc1nc2c(-c3ccco3)nc(NC(=O)C3CC3)cn2n1 [US11718622, Compound 186]	> 8.00	> 8.00
